The source made the active and inactive calls.
Assays:
[1] = molecular target: T1, Ubiquitin-conjugating enzyme E2 N (Homo sapiens, UniProt P61088); assay type: functional;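 further: Dose-response confirmation in a TR-FRET assay detecting UBC13-driven polyubiquitin chain formation, inhibition measured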
T1 sequence (P61088 whole entry): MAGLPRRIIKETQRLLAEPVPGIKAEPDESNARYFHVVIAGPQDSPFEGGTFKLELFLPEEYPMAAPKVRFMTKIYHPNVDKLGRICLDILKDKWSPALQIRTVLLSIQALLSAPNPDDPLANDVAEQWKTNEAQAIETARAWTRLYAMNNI

[2] = inhibitors of intracellular T. cruzi replication, confirmation, NIH3T3 host cells, beta-gal luminescence (AID 2044); assay type: functional, cell-based;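 further: intracellular parasites grown in NIH/3T3 mouse fibroblasts as host cells; luminescent beta-galactosidase reporter signal from transgenic T. cruzi replicating inside host cells; inhibitors lower the luminescence signal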
[3] = cytotoxicity toward NIH3T3 fibroblasts, dose response, counter-screen, cell-based, ATP luminescence, mouse fibroblasts (AID 2010); assay type: functional;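 further: cells exposed to compound for about 90 hours before reading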
[4] = growth suppression of PTEN-null colon cells, dose response, cell-based, HCT116 PTEN knockout (AID 1047); assay type: functional;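 further: HCT116 colon tumor cells with PTEN knocked out; cells exposed to compound for 60 hours before readout; potency for loss of cell viability measured by luminescence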
[5] = growth suppression of beta-catenin-knockout colon cells, dose response, cell-based, HCT116, human colon tumor (AID 1045); assay type: functional;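 further: HCT116 colon tumor cells with beta catenin knocked out; cells exposed to compound for 60 hours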
[6] = molecular target: T2, Heat shock factor protein 1 (Mus musculus, UniProt P38532); assay: HSF1 potentiators in luciferase reporter cells, confirmation, cell-based, NIH3T3, luminescence, dose retest (AID 435004); assay type: functional;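 further: stress induced by proteasome inhibitor MG132 added 30 min after compound; luciferase reporter driven by HSF1 response element in NIH3T3 cells; actives raise luminescence as potentiators of the MG132 stress response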
T2 sequence (P38532 whole entry): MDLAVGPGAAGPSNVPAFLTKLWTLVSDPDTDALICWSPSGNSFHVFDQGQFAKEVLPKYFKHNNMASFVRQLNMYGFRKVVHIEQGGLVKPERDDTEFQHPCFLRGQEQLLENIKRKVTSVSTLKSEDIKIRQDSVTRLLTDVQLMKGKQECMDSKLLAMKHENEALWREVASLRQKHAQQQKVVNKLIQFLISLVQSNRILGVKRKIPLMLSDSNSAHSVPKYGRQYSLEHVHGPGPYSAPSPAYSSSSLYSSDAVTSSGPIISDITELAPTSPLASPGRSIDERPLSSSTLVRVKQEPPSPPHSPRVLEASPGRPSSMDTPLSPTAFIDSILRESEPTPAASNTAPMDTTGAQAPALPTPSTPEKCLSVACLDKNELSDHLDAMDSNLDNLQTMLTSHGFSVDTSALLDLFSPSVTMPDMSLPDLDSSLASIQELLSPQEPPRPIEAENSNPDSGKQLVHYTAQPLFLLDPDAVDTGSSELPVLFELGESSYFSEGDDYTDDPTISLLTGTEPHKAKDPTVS

Protein skinhead-1 = molecular target: T3, Protein skinhead-1 (Caenorhabditis elegans, UniProt P34707); assay type: functional
T3 sequence (P34707 whole entry): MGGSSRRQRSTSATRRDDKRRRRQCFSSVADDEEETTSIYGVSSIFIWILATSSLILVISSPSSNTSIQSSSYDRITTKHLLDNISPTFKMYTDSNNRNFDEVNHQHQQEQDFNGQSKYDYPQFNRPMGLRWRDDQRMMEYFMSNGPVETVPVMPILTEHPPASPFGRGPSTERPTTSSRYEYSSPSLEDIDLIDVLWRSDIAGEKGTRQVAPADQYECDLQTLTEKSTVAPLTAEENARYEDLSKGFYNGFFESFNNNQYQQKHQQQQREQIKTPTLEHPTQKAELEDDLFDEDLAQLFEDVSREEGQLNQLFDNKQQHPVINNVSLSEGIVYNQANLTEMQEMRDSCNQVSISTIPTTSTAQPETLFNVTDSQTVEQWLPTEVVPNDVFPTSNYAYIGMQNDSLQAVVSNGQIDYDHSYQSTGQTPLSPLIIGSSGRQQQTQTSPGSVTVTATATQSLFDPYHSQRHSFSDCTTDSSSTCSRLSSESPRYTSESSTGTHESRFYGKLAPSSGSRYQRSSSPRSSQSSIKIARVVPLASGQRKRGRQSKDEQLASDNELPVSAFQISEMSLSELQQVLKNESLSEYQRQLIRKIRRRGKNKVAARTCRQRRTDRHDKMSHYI

[7] = molecular target: T4, Calpain-2 catalytic subunit (Sus scrofa, UniProt P43367); assay: pig calpain II inhibitor potency, dose response, biochemical, fluorogenic peptide substrate (AID 1420); assay type: functional
T4 sequence (P43367 whole entry): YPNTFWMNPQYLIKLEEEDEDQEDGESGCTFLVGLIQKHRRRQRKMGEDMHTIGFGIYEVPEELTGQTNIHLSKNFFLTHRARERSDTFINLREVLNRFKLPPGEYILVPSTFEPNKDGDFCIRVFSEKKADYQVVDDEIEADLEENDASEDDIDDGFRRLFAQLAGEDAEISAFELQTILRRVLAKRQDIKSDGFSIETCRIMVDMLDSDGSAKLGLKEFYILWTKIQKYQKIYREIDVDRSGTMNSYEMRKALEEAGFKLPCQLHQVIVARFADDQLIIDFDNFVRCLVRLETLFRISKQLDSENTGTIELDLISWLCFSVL

[8] = HEp-2 cell cytotoxicity, dose response, cytotoxicity control for RSV inhibitor project, HTS (AID 2410); assay type: functional; conditions: human respiratory syncytial virus
[9] = NIH-3T3 fibroblast cytotoxicity, dose response, cytotoxicity control, cell-based, fluorescence, Alamar Blue, secondary assay (AID 2327); assay type: functional;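 further: NIH-3T3 mouse fibroblasts cultured with fluconazole at 8 µg/mL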
[10] = C. albicans growth with fluconazole, confirmation, fluorescence, retest (AID 2467); assay type: functional, cell-based
[11] = inhibitors of SNCA 5'UTR-driven reporter translation, confirmation, H4 neuroglioma cells, luminescence (AID 1988); assay type: functional, cell-based
[12] = inhibitors of firefly luciferase expression or activity, dose response, H4 neuroglioma cells, luminescence (AID 1990); assay type: functional, cell-based
[13] = Luminescence Cell-Based Dose Response HTS to Identify Inhibitors of 5'UTR Stem-Loop Driven Prion Protein mRNA Translation in H4 Neuroglioblastoma Cells. [Related pubchem assays: 1827 (Project Summary), 1813 (Primary HTS)]; assay type: functional
[14] = Luminescence Cell-Based Dose Retest to Confirm Inhibitors of Cancer Stem Cells. [Related pubchem assays (depositor defined):AID2717, AID2721]; assay type: functional; conditions: Homo sapiens
[15] = HepG2 cell cytotoxicity, dose response, cytotoxicity control, plate reader, dry powder samples (AID 1159569); assay type: functional, cell-based;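 further: inhibitor potency with signal falling toward the positive control level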
[16] = P. falciparum Dd2 growth inhibitors, dose response, SYBR Green, dry powder samples (AID 1159566); assay type: functional, cell-based;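 further: potency for growth inhibition with lower SYBR green DNA signal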
[17] = P. falciparum ATP4 D1247Y mutant growth inhibitors, dose response, NITD609-resistant line, SYBR Green, dry powder (AID 1159571); assay type: functional, cell-based;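 further: parasites synchronized at ring stage by sorbitol before testing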
[18] = P. falciparum 3D7-ScDHODH growth inhibitors, dose response, SYBR Green, dry powder samples (AID 1159570); assay type: functional, cell-based;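 further: parasite growth measured after 72 hours of compound exposure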
[19] = A cytotoxicity screen of small molecule inhibitors of the PhoP region in Salmonella typhi identified in the primary screen. [Related pubchem assays: 1850, 1864, 1985 ]; assay type: functional
[20] = molecular target: T5, Oxysterols receptor LXR-beta (Homo sapiens, UniProt P55055); assay type: functional, cell-based;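 further: agonist activity at LXR measured by a cell-based luminescence readout across a dose range, run as a counterscreen for daf-12 agonists; HEK293 cells with Gal4-LXR fusion and GAL4-driven luciferase reporter; potency for activation of Gal4-LXR reporter so compounds are agonists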
T5 sequence (P55055 whole entry): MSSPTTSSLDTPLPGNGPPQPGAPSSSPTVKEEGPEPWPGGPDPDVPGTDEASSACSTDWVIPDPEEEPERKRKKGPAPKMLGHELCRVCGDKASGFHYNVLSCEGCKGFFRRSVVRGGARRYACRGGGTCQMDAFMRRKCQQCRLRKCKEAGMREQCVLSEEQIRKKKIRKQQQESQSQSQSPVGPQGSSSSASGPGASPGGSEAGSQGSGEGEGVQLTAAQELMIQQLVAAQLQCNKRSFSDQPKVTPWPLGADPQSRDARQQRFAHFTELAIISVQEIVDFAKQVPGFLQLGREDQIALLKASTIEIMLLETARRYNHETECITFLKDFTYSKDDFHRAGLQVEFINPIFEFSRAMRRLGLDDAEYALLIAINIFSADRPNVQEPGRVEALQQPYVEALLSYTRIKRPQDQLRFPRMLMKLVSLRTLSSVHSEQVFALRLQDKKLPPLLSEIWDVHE

In the case of `COc1ccc2cc3cc(C(=O)Nc4ccccc4N4CCN(C)CC4)oc3nc2c1`, the IC50 [1] is reported as > 20 µM (inactive), the EC50 [2] is reported as 1.65 µM (active) and the EC50 [3] is reported as 4.47 µM (active). For the same compound, the EC50 [4] was 1.43 µM (active) and the EC50 [5] was 2.25 µM (active).
With `O=C(CSc1nc2ccccc2c2nc3ccccc3n12)NCc1ccco1` the IC50 (cells) was 45.6 µM (active), the EC50 [6] was > 260 µM (inactive) and the IC50 (Protein skinhead-1) was > 100 µM (inactive).
With `COc1ccccc1NC(=O)/C=C\C(=O)O` the IC50 [7] was 17.4 µM (not active).
For `Cc1c2ccccc2nc2c(F)c(NCCO)c(F)c(F)c12`, the IC50 (cells) was 1.53 µM (active), the CC50 [8] was 1.77 µM (active) and the EC50 [9] was > 160 µM (inactive). For the same compound, the EC50 [10] was > 38 µM (not active).
For `O=C(Nc1ccncc1)c1cc(-c2cccc(Br)c2)nc2ccccc12`, the IC50 (cells) was 17.4 µM (active), the CC50 [8] was 22.7 µM (active) and the EC50 [11] was > 120 µM (not active). For the same compound, the EC50 [12] was > 120 µM (not active), the EC50 [13] was > 120 µM (not active) and the AC50 [14] was 5.05 µM (active).
For `COc1cccc(NC(=O)N(C)C[C@@H]2Oc3cc(C#Cc4ccccc4)ccc3S(=O)(=O)N([C@@H](C)CO)C[C@@H]2C)c1`, the AC50 [15] was > 100 µM (inactive), the AC50 [16] was 1.33 µM (active) and the AC50 [17] was 1.35 µM (active). The AC50 [18] was 1.14 µM (active).
With `CCNC(=O)Oc1cccnc1O` the EC50 [19] was > 50 µM (active).
With `Cc1ccc(CN2CCN(CC(C)C)C(CCO)C2)s1` (centres undefined) the EC50 [6] was 98.2 µM (active) and the EC50 [20] was > 67.6 µM (inactive).
In the case of `Cc1ccc(S(=O)(=O)NCC(=O)OCN2C(=O)c3ccccc3C2=O)cc1`, the EC50 [19] is reported as > 50 µM (active).
In the case of `O=C(OCc1nnc(-c2ccccc2)o1)C12CC3CC(CC(Br)(C3)C1)C2`, the IC50 [7] is reported as 3.14 µM (not active).
With `COc1ccc(CNc2nc3ccccc3n2C)c(O)c1` the EC50 [19] was > 50 µM (active).

Reference: ChEMBL document CHEMBL1201862, “PubChem BioAssay data set” (2004)
